Experimental data reported in patent US20240261249A1, “NOVEL SQUARAMIDE DERIVATIVE AND USE THEREOF” (PUSAN NATIONAL UNIVERSITY INDUSTRY-UNIVERSITY COOPERATION …, priority 2021, published 2024).

Test system: Phospho-eIF2α (Ser51)
Experiment: Phospho-eIF2α (Ser51) Sandwich ELISA in K562 cells
Format: cell-based
Conditions: Homo sapiens, K562, 6 h, serum-free RPMI, 10 μM compound, control = 1, read-out: eIF2α phosphorylation, absorbance standardized to control (DMSO-treated) set to 1, at 10 μM
Description: Pathscan Phospho-eIF2α (Ser51) Sandwich ELISA Kit #7286 from Cell signaling was used. The K562 cell line was cultured in serum-free RPMI medium at 37° C. in the presence of 5% CO2. Cells were treated with test compounds at a concentration of 10 μM. Six hours after compound treatment, the cells were lysed with a lysis buffer included in the kit to obtain 50 μg of protein by quantification. Afterwards, ELISA assay was performed according to the manufacturer's protocol to obtain absorbance. The absorbance for each obtained compound was standardized to a value of which the control (DMSO-treated) is set to 1.

## O=c1c(Nc2ccccc2F)c(N[C@H]2CC[C@H](Oc3ccc([N+](=O)[O-])cc3)CC2)c1=O [Compound 64, 3-((2-Fluorophenyl)amino)-4-(((1,4-trans)-4-(4-nitrophenoxy)cyclohexyl)amino)cyclobut-3-ene-1,2-dione]
  activity at 10 µM: 133%

## O=c1c(Nc2ccccc2F)c(N[C@H]2CC[C@H](Oc3ccc(C(F)(F)F)cc3)CC2)c1=O [Compound 62, 3-((2-Fluorophenyl)amino)-4-(((1,4-trans)-4-(4-(trifluoromethyl)phenoxy)cyclohexyl)amino)cyclobut-3-ene-1,2-dione]
  activity at 10 µM: 182%

## COc1ccc(Nc2c(N[C@H]3CC[C@H](Oc4ccc(C(F)(F)F)cc4)CC3)c(=O)c2=O)cc1 [Compound 54, 3-((4-Methoxyphenyl)amino)-4-(((1,4-trans)-4-(4-(trifluoromethyl)phenoxy)cyclohexyl)amino)cyclobut-3-ene-1,2-dione]
  activity at 10 µM: 182%

## CS(=O)(=O)c1ccc(O[C@H]2CC[C@H](Nc3c(Nc4ccc(F)cc4)c(=O)c3=O)CC2)cc1 [Compound 41, 3-((4-Fluorophenyl)amino)-4-(((1,4-trans)-4-(4-(methylsulfonyl)phenoxy)cyclohexyl)amino)cyclobut-3-ene-1,2-dione]
  activity at 10 µM: 62%

## CS(=O)(=O)c1ccc(O[C@H]2CC[C@H](Nc3c(Nc4ccccc4)c(=O)c3=O)CC2)cc1 [Compound 11, 3-(((1,4-trans)-4-(4-(Methylsulfonyl)phenoxy)cyclohexyl)amino)-4-(phenylamino)cyclobut-3-ene-1,2-dione]
  activity at 10 µM: 94%

## N#Cc1ccc(O[C@H]2CC[C@H](Nc3c(Nc4ccc(Cl)cc4)c(=O)c3=O)CC2)cc1 [Compound 43, 4-(((1,4-trans)-4-((2-((4-Chlorophenyl)amino)-3,4-dioxocyclobut-1-en-1-yl)amino)cyclohexyl)oxy)benzonitrile]
  activity at 10 µM: 87%

## CS(=O)(=O)c1ccc(O[C@H]2CC[C@H](Nc3c(Nc4ccc(Cl)cc4)c(=O)c3=O)CC2)cc1 [Compound 45, 3-((4-Chlorophenyl)amino)-4-(((1,4-trans)-4-(4-(methylsulfonyl)phenoxy)cyclohexyl)amino)cyclobut-3-ene-1,2-dione]
  activity at 10 µM: 79%

## CC(C)(C)c1ccc(Nc2c(N[C@H]3CC[C@H](Oc4ccc(S(C)(=O)=O)cc4)CC3)c(=O)c2=O)cc1 [Compound 53, 3-((4-(tert-Butyl)phenyl)amino)-4-(((1,4-trans)-4-(4-(methylsulfonyl)phenoxy)cyclohexyl)amino)cyclobut-3-ene-1,2-dione]
  activity at 10 µM: 133%

## O=c1c(Nc2ccccc2)c(N[C@H]2CC[C@H](Oc3ccc([N+](=O)[O-])cc3)CC2)c1=O [Compound 10, 3-(((1,4-trans)-4-(4-Nitrophenoxy)cyclohexyl)amino)-4-(phenylamino)cyclobut-3-ene-1,2-dione]
  activity at 10 µM: 84%

## NS(=O)(=O)c1ccc(O[C@H]2CC[C@H](Nc3c(Nc4ccccc4)c(=O)c3=O)CC2)cc1 [Compound 12, 4-(((1,4-trans)-4-((3,4-Dioxo-2-(phenylamino)cyclobut-1-en-1-yl)amino)cyclohexyl)oxy)benzenesulfonamide]
  activity at 10 µM: 81%

## O=c1c(Nc2cccc(Cl)c2)c(N[C@H]2CC[C@H](Oc3ccc(C(F)(F)F)cc3)CC2)c1=O [Compound 18, 3-((3-Chlorophenyl)amino)-4-(((1,4-trans)-4-(4-(trifluoromethyl)phenoxy)cyclohexyl)amino)cyclobut-3-ene-1,2-dione]
  activity at 10 µM: 71%

## COc1ccccc1Nc1c(N[C@H]2CC[C@H](Oc3ccc(S(N)(=O)=O)cc3)CC2)c(=O)c1=O [Compound 82, 4-(((1,4-trans)-4-((2-((2-Methoxyphenyl)amino)-3,4-dioxocyclobut-1-en-1-yl)amino)cyclohexyl)oxy)benzenesulfonamide]
  activity at 10 µM: 136%

## CC(C)(C)c1ccc(Nc2c(N[C@H]3CC[C@H](Oc4ccc(C(F)(F)F)cc4)CC3)c(=O)c2=O)cc1 [Compound 50, 3-((4-(tert-Butyl)phenyl)amino)-4-(((1,4-trans)-4-(4-(trifluoromethyl)phenoxy)cyclohexyl)amino)cyclobut-3-ene-1,2-dione]
  activity at 10 µM: 204%

## NS(=O)(=O)c1ccc(O[C@H]2CC[C@H](Nc3c(Nc4cccc(C(F)(F)F)c4)c(=O)c3=O)CC2)cc1 [Compound 27, 4-(((1,4-trans)-4-((3,4-Dioxo-2-((3-(trifluoromethyl)phenyl)amino)cyclobut-1-en-1-yl)amino)cyclohexyl)oxy)benzenesulfonamide]
  activity at 10 µM: 108%

## COC(=O)c1ccc(Nc2c(N[C@H]3CC[C@H](Oc4ccc([N+](=O)[O-])cc4)CC3)c(=O)c2=O)cc1 [Compound 60, Methyl 4-((2-(((1,4-trans)-4-(4-nitrophenoxy)cyclohexyl)amino)-3,4-dioxocyclobut-1-en-1-yl)amino)benzoate]
  activity at 10 µM: 97%

## CC(C)(C)c1ccc(Nc2c(N[C@H]3CC[C@H](Oc4ccc(C#N)cc4)CC3)c(=O)c2=O)cc1 [Compound 51, 4-(((1,4-trans)-4-((2-((4-(tert-Butyl)phenyl)amino)-3,4-dioxocyclobut-1-en-1-yl)amino)cyclohexyl)oxy)benzonitrile]
  activity at 10 µM: 182%

## O=c1c(Nc2ccccc2)c(N[C@H]2CC[C@H](Oc3ccc(C(F)(F)F)cc3)CC2)c1=O [Compound 8, 3-(Phenylamino)-4-(((1,4-trans)-4-(4-(trifluoromethyl)phenoxy)cyclohexyl)amino)cyclobut-3-ene-1,2-dione]
  activity at 10 µM: 95%

## COc1ccccc1Nc1c(N[C@H]2CC[C@H](Oc3ccc(C(F)(F)F)cc3)CC2)c(=O)c1=O [Compound 78, 3-((2-Methoxyphenyl)amino)-4-(((1,4-trans)-4-(4-(trifluoromethyl)phenoxy)cyclohexyl)amino)cyclobut-3-ene-1,2-dione]
  activity at 10 µM: 213%

## COC(=O)c1ccc(Nc2c(N[C@H]3CC[C@H](Oc4ccc(C(F)(F)F)cc4)CC3)c(=O)c2=O)cc1 [Compound 58, Methyl 4-((3,4-dioxo-2-(((1,4-trans)-4-(4-(trifluoromethyl)phenoxy)cyclohexyl)amino)cyclobut-1-en-1-yl)amino)benzoate]
  activity at 10 µM: 97%

## O=c1c(Nc2ccc(F)cc2)c(N[C@H]2CC[C@H](Oc3ccc(C(F)(F)F)cc3)CC2)c1=O [Compound 38, 3-((4-Fluorophenyl)amino)-4-(((1,4-trans)-4-(4-(trifluoromethyl)phenoxy)cyclohexyl)amino)cyclobut-3-ene-1,2-dione]
  activity at 10 µM: 65%

## COc1cccc(Nc2c(N[C@H]3CC[C@H](Oc4ccc(C#N)cc4)CC3)c(=O)c2=O)c1 [Compound 34, 4-(((1,4-trans)-4-((2-((3-Methoxyphenyl)amino)-3,4-dioxocyclobut-1-en-1-yl)amino)cyclohexyl)oxy)benzonitrile]
  activity at 10 µM: 83%

## CC(C)(C)c1ccc(Nc2c(N[C@H]3CC[C@H](Oc4ccc([N+](=O)[O-])cc4)CC3)c(=O)c2=O)cc1 [Compound 52, 3-((4-(tert-Butyl)phenyl)amino)-4-(((1,4-trans)-4-(4-nitrophenoxy)cyclohexyl)amino)cyclobut-3-ene-1,2-dione]
  activity at 10 µM: 77%

## N#Cc1ccc(O[C@H]2CC[C@H](Nc3c(Nc4ccccc4Cl)c(=O)c3=O)CC2)cc1 [Compound 67, 4-(((1,4-trans)-4-((2-((2-Chlorophenyl)amino)-3,4-dioxocyclobut-1-en-1-yl)amino)cyclohexyl)oxy)benzonitrile]
  activity at 10 µM: 199%
